Results as given in US11299467B2 (Antabio SAS, priority 2017, dated 2022).
Like-named read-outs stand apart in the source and are kept apart here.

Tests used:
[1] = Plasma stability of test compounds in human plasma; assay type: in vitro ADME; details: 1 μM, 37° C.
Method: [table] Test compound and QC compound were incubated at a final concentration of 1 μM in plasma at 37° C. in shaker water bath with gentle shaking. At predetermined time points, reaction was terminated with 200 μL of acetonitrile containing internal standard and centrifuged at 4000×RCF, 4° C. for 20 minutes. Supernatant was separated and analyzed by LC-MS/MS. The following equation was used to determine the percentage remaining of test/QC compound following the procedure above: […]

[2] = PK study, i.v. dosing in mice; assay type: in vivo, male Swiss albino mice; details: i.v. 1 mg/kg; for AUC / C0 / clearance: mouse, plasma, iv, male Swiss albino mice; for AUC: read-out: AUC (area under the curve); for C0: read-out: C0 (plasma concentration); for clearance: read-out: Cl (clearance)
Method: Compound A and Example 7 were dosed i.v. at 1 mg/kg to male Swiss albino mice.

[3] = Plasma protein binding, rapid equilibrium dialysis, human plasma; assay type: in vitro ADME; details: 100% plasma, 5 h equilibrium dialysis
Method: [table] Test compound was spiked in plasma to a final concentration of 10 μM. An aliquot of 300 μL of plasma was placed in red chamber of the insert and 500 μL of PBS was placed into white chamber of the insert. The plate was incubated at 37° C. in thermomixer at 400 rpm for 5 hours. After incubation, the samples were matrix equilibrated with opposite matrix (10 μL of plasma/100 μL of buffer sample was matched with 100 μL of blank buffer/10 μL of plasma). Matrix matched samples were precipitated with 200 μL of acetonitrile containing internal standard. Samples were vortexed at 1000 rpm for 5 min and centrifuged at 4000 rpm for 10 min. Supernatant was separated, diluted 2 fold with water and analyzed on LC-MS/MS. Blank control samples were processed immediately after the preparation of plasma working stock solutions. These samples served as a measure for calculating the % recovery of test compounds. The percent plasma bound fraction was calculated by the following equations: % Unbound=100*FC/TC % Recovery=100*(FC+TC)/T0 where • TC=Total compound concentration as determined by the calculated concentration on the plasma side of the membrane • FC=Free compound concentration as determined by the calculated concentration on the buffer side of the membrane • T0=Total compound concentration as determined before dialysis For each set of duplicates/compound, the percentage bound, percentage unbound and percentage recovery was determined.

[4] = target: NDM-1 (Klebsiella pneumoniae, UniProt C7C422); test: In vitro enzyme inhibition assay, purified NDM-1 (imipenem hydrolysis, UV 299 nm); assay type: biochemical
Method: (§1) Enzyme inhibition assays were performed using purified MBL enzymes (NDM-1; VIM-1; VIM-2; IMP-1) in 10 mM HEPES buffer pH 7.5 in 96-well microtiter plates. Imipenem (300 μM) was used as substrate and its hydrolysis was followed at UV 299 nm during 10 mn every 30 seconds using a Perkin Elmer Envision UV fluorescence plate reader.
(§2) Mean Ki values from multiple experiments are presented below.
(§3) Studies were undertaken to compare the compounds of the invention with structurally similar compounds (“Comp. x”). Experiments were conducted as described above.

[5] = target: VIM-2 (Escherichia coli, UniProt Q5U7L7); test: In vitro enzyme inhibition assay, purified VIM-2 (imipenem hydrolysis, UV 299 nm); assay type: biochemical
Method: as §1, §2, §3

[6] = target: VIM-1 (Pseudomonas aeruginosa, UniProt A0A0F7KYQ8); test: In vitro enzyme inhibition assay, purified VIM-1 (imipenem hydrolysis, UV 299 nm); assay type: biochemical
Method: as §1, §2, §3

[7] = system: K. pneumoniae NTBC104; test: In vivo efficacy, mouse thigh infection with K. pneumoniae NTBC104; details: meropenem 30 mg/kg plus compound 30 mg/kg, 9 hours post infection
Method: (§4) Mice were infected in the thigh with K. pneumoniae NTBC104. […] The MIC of meropenem in the presence of 8 ug/mL of the compound of Example 2 is 4 ug/mL.
At the end of the experiment (9 hours post infection) the animals were sacrificed and the numbers of colony forming units (CFUs) were measured in order to quantify bacterial load (extent of the infection).

[8] = target: IMP-1 (Serratia marcescens, UniProt P52699); test: In vitro enzyme inhibition assay, purified IMP-1 (imipenem hydrolysis, UV 299 nm); assay type: biochemical
Method: as §1, §2, §3

[9] = system: NTBC104-1 (K. pneumoniae strain expressing NDM-1 and SHV-11); test: Meropenem MIC, broth micro-dilution, NTBC104-1; assay type: cell-based; details: 8 ug/mL of the compound
Method: The experiments were carried out using the ‘broth micro-dilution method’ according to the protocols M07-A8 established by the Clinical Laboratory Standards Institute (CLSI). Serial dilutions of the β-lactam antibiotic (Meropenem) were prepared in 96-well plates in cation-adjusted Mueller-Hinton broth (CAMHB); the concentration range was defined from 0.03 mg/L to 512 mg/L. The compounds were added at a constant concentration of 8 μg/mL. A bacterial inoculum of each strain (clinical isolates) was adjusted to a 0.5 McFarland turbidity standard in physiologic serum (0.9% NaCl), then diluted 1:100 in CAMHB and added to each well to give a final bacterial cell number of 5×10^5 CFU/well. After incubation for 18-20 hours in a heating chamber at 37° C., the growth inhibition was evaluated by the absence of any bacterial development.
Compounds of the invention were tested at a constant concentration of 8 μg/mL. The clinical strains used in these potentiation experiments were NTBC020 (E. coli strain expressing NDM-1, TEM-1 and CTX-M-15); NTBC035-2 (K. pneumoniae strain expressing NDM-1, CMY-4 and SHV-11); NTBC104-1 (K. pneumoniae strain expressing NDM-1 and SHV-11); NTBC123 (K. pneumoniae strain expressing NDM-1); NTBC018 (C. freundii strain expressing VIM-2); NTBC024 (K. pneumoniae strain expressing VIM-19, TEM-1 and CTX-M-3); NTBC042 (E. coli strain expressing VIM-1, TEM-1, CTX-M-15, SHV-12); NTBC055 (E. Coli strain expressing VIM-1); NTBC062 (K. pneumoniae strain expressing IMP-1 and TEM-1) and NTBC039 (K. oxytoca strain expressing IMP-28).
as §4
Experiments were carried out using the ‘broth micro-dilution method’ according to the protocols M07-A8 established by the Clinical Laboratory Standards Institute (CLSI). […] After incubation for 18-20 hours in a heating chamber at 37° C., the growth inhibition was evaluated by the absence of any bacterial development. […]

[10] = mean Ki from multiple experiments, imipenem 300 μM, Cheng-Prusoff from IC50, read-out: Ki NDM-1
[11] = mean Ki from multiple experiments, imipenem 300 μM, Cheng-Prusoff from IC50, read-out: Ki VIM-2
[12] = mean Ki from multiple experiments, imipenem 300 μM, Cheng-Prusoff from IC50, read-out: Ki VIM-1
[13] = mean Ki from multiple experiments, imipenem 300 μM, Cheng-Prusoff from IC50, read-out: Ki IMP-1
[14] = comparative study bands, read-out: Ki NDM-1 (comparative study)
[15] = comparative study bands, read-out: Ki VIM-2 (comparative study)
[16] = comparative study bands, read-out: Ki VIM-1 (comparative study)
[17] = comparative study bands, read-out: Ki IMP-1 (comparative study)

Sequence of NDM-1 (C7C422 29-270, looked up): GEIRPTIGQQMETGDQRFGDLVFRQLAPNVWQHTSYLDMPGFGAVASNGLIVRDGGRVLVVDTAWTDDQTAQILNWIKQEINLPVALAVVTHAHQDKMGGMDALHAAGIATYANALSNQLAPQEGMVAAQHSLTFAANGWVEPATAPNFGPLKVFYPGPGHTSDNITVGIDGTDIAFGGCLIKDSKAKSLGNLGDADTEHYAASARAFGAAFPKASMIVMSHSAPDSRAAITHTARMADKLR
Sequence of IMP-1 (P52699 19-246, looked up, species assumed): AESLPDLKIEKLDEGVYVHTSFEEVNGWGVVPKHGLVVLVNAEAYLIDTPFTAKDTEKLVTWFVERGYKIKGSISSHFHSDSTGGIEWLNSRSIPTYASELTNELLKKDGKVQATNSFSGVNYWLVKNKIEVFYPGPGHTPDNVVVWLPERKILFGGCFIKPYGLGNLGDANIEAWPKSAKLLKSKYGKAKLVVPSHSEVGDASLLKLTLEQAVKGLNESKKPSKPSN

| Stability in human plasma, % remaining ([1]; after 2 hours) [% remaining after 2 hours] | AUC [2] [ng·h/mL] | C0 [2] [ng/mL] | clearance [2] [mL/min/kg] | fraction unbound at 5 h, 10 μM [3] | Ki [4, 10] [nM] | Ki [5, 11] [nM] | Ki [6, 12] [nM] | Ki [8, 13] [nM] | Stability in human plasma, % remaining ([1]; after 5 hours) [% remaining after 5 hours] | cleared from the blood slower than Compound A ([2]; same dosage, mice) | exposure (AUC) compared to Compound A ([2]; same dosage, mice) [fold] | maximum concentration compared to Compound A ([2]; same dosage, mice) [fold] | Compound | Log10 reduction in CFUs compared to meropenem alone [7] [Log10] | Ki [4, 14] [nM] | Ki [5, 15] [nM] | Ki [6, 16] [nM] | Ki [8, 17] [nM] | MIC of meropenem in the presence of the compound, K. pneumoniae NTBC104 [9] [µg/mL] |
| --- | --- | --- | --- | --- | --- | --- | --- | --- | --- | --- | --- | --- | --- | --- | --- | --- | --- | --- | --- |
| 29 | 9 | 17 | 819 | 0.097 | – | – | – | – | – | – | – | – | NCC(=O)Nc1ccc(S(=O)(=O)Nc2scnc2C(=O)O)cc1F [Comp. A, reference compound] | – | – | – | – | – | – |
| – | – | – | – | – | < 50 | 20 to 50 | 200 to 500 | 1000 to 10000 | – | – | – | – | N=C(N)NNC(=O)Nc1c(F)cc(S(=O)(=O)Nc2scnc2C(=O)O)cc1F [Example 26, 5-[[3,5-difluoro-4-(guanidinocarbamoylamino)phenyl]sulfonylamino]thiazole-4-carboxylic acid] | 1.8 | – | – | – | – | – |
| – | 1040 | 1810 | 16 | 0.392 | 50 to 200 | 50 to 150 | 200 to 500 | 1000 to 10000 | 100 | about 50 fold | > 100 | > 100 | N=C(N)NCC(=O)Nc1ccc(S(=O)(=O)Nc2scnc2C(=O)O)cc1F [Example 7, 5-[[3-fluoro-4-[(2-guanidinoacetyl)amino]phenyl]sulfonylamino]thiazole-4-carboxylic acid] | 1.7 | – | – | – | – | – |
| 89 | – | – | – | – | 50 to 200 | < 20 | < 200 | 500 to 1000 | – | – | – | – | COc1cc(S(=O)(=O)Nc2scnc2C(=O)O)ccc1NC(=O)CNC(=N)N [Example 16, 5-[[4-[(2-guanidinoacetyl)amino]-3-methoxy-phenyl]sulfonylamino]thiazole-4-carboxylic acid] | – | 30 to 100 | < 20 | < 150 | 150 to 600 | – |

| Compound | Stability in human plasma, % remaining ([1]; after 2 hours) [% remaining after 2 hours] | AUC [2] [ng·h/mL] | C0 [2] [ng/mL] | clearance [2] [mL/min/kg] | fraction unbound at 5 h, 10 μM [3] | Ki [4, 10] [nM] | Ki [5, 11] [nM] | Ki [6, 12] [nM] | Ki [8, 13] [nM] | Stability in human plasma, % remaining ([1]; after 5 hours) [% remaining after 5 hours] | cleared from the blood slower than Compound A ([2]; same dosage, mice) | exposure (AUC) compared to Compound A ([2]; same dosage, mice) [fold] | maximum concentration compared to Compound A ([2]; same dosage, mice) [fold] | Log10 reduction in CFUs compared to meropenem alone [7] [Log10] | Ki [4, 14] [nM] | Ki [5, 15] [nM] | Ki [6, 16] [nM] | Ki [8, 17] [nM] | MIC of meropenem in the presence of the compound, K. pneumoniae NTBC104 [9] [µg/mL] |
| --- | --- | --- | --- | --- | --- | --- | --- | --- | --- | --- | --- | --- | --- | --- | --- | --- | --- | --- | --- |
| N=C(N)NCC(=O)Nc1c(F)cc(S(=O)(=O)Nc2scnc2C(=O)O)cc1F [Example 2, 5-[[3,5-difluoro-4-[(2-guanidinoacetyl)amino]phenyl]sulfonylamino]thiazole-4-carboxylic acid] | 73 | – | – | – | 0.19 | < 50 | 50 to 150 | 200 to 500 | 1000 to 10000 | – | – | – | – | 1.6 | < 30 | 50 to 100 | 300 to 500 | 600 to 5000 | 4 |
